Test results reported in article PMC5514153, “Targeting PTPRZ inhibits stem cell-like properties and tumorigenicity in glioblastoma cells” (Scientific Reports, 2017).

How the values were obtained:
[1] = molecular target: T1, PTPRZ1 V1911F (Homo sapiens, UniProt P23471, V1911F); test: Inhibitor sensitivity of point mutant PTPRZ1 V1911F; format: biochemical; conditions: 10 µM, vs wild-type PTPRZ1
T1 construct: Point mutants of the PTPRZ1-ICR, PTPRG-ICR, and PTPN1 catalytic domain were generated; GST (N); made in house
T1 sequence (P23471 1663-2315 V1911F limits assumed): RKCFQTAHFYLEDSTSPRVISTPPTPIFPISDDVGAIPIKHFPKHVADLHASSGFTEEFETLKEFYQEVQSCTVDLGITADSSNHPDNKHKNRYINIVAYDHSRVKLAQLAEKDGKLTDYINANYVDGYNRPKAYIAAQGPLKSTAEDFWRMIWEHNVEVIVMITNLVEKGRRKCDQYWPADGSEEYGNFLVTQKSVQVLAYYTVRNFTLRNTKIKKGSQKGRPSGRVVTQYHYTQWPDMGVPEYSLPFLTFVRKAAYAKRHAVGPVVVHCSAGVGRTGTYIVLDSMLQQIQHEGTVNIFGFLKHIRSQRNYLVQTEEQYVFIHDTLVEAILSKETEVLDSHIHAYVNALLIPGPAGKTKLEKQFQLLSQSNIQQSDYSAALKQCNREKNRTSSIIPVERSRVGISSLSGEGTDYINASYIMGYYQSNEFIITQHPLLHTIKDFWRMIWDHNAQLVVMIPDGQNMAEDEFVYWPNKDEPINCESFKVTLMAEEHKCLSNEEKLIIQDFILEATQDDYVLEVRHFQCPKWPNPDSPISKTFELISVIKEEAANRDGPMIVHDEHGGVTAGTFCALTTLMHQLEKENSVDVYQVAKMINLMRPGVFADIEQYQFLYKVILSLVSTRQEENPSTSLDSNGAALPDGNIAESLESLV
Source text: Figure 5 Structural basis for PTPRZ inhibition of NAZ2329. (A) An enlarged view of the X-ray structure of human PTPRZ1-D1 complexed with NAZ2329 (PDB ID: 5H08) (left), X-ray structure of the apo (open) form of PTPRZ1-D1 (PDB ID: 5AWX, ref. [6], middle) and a computer-modeled structure of the closed form of PTPRZ1-D1 complexed with a competitive inhibitor, SCB4380 (ref. [6], right), are shown. PTPRZ1-D1 is shown as a gray surface representation, in which Cys1933 at the active site and Val-1911 at the bottom of the allosteric pocket are indicated in red and yellow, respectively. Inhibitors are colored according to the atomic species in a stick figure representation as follows: oxygen (red), nitrogen (blue), sulfur (yellow), and carbon (green). The bottom figures show the conformation of the WPD loop (orange) as cartoon representations, in which Asp1901 and Cys1933 are indicated by orange and red spheres, respectively. Side chains of Arg1939 at the active site, Met1902 in the WPD loop, and Val-1911 at the bottom of the allosteric binding area are also shown in the stick representation. (B) LigPlot representation of the NAZ2329 interaction with PTPRZ1-D1. The predicted hydrogen bonds (broken black lines) and residues (red spoked arcs) involved in the hydrophobic interaction are shown. […]

[2] = tested on: C6 cells; test: Sphere formation, SOX2 expression and self-renewal, C6 cells; format: cell-based, rat
Procedure: Figure 7 Cellular effects of NAZ2329 on the malignant phenotypes of C6 cells. (A) Phosphorylation of paxillin at Tyr-118. C6 cells were incubated with NAZ2329 for the indicated periods. Immunoprecipitated paxillin was analyzed by Western blotting using anti-pY118-paxillin and anti-paxillin. Blots are representative of five independent cultures. […] (B) Cell proliferation assay. C6 cells were incubated for 48 h with NAZ2329 in normal medium containing 2% FBS. […] (C) Boyden chamber assay. Cells were allowed to migrate for 3 h. DAPI-stained nuclei are shown before (total) and after (migrated) the removal of cells remaining in the top chamber. Scale bars, 100 µm. […] (D,E) Sphere formation (D) and SOX2 expression (E). C6 cells were cultured in CSC medium for 7 days with indicated concentrations of NAZ2329. Images are representative of five independent cultures. Scale bars, 100 µm. […] (F) Self-renewal of C6 spheres. C6 spheres were initially developed in CSC medium for 7 days, followed by an incubation with NAZ2329 in CSC medium for 5 days. Images are representative of five independent cultures. Scale bars, 100 µm. […] Full-length blots and gels are presented in Supplementary Fig. S7.
Cells were inoculated at 5 × 10^3 cells per 96-well uncoated polystyrene plate (# 9018, Corning) or 5 × 10^4 cells per 35-mm plastic petri dish (#351008, Corning), and cultured in a serum-free medium containing DMEM/F12 with 1x B27 supplement (#17504044, Thermo Fisher Scientific), EGF (20 ng/ml), and basic fibroblast growth factor (bFGF, 20 ng/ml, #064-05381, Wako pure chemical). After a 7-day culture, cells were fixed with 10% neutral formalin and pictured under a conventional microscope. The number of spheroids of approximately 70 µm in diameter were counted manually using Adobe Photoshop CS6 (Adobe).

CCOc1ccc(C(F)(F)F)cc1CSc1ccsc1C(=O)NS(=O)(=O)c1ccccc1 [NAZ2329]
effect of V1911F substitution on sensitivity to inhibitor [1]: markedly reduced the sensitivity
SOX2 expression ([2]; C6 cells, CSC medium, 7 days): decrease in SOX2 expression
sphere formation ([2]; C6 cells, CSC medium, 7 days): dose-dependently inhibited sphere formation
self-renewal of sphere-forming cells ([2]; C6 spheres, 5 days with compound): suppressed self-renewal
